Results reported in ChEMBL document CHEMBL5291721, “A preclinical secondary pharmacology resource illuminates target-adverse drug reaction associations of marketed drugs” (Nat Commun, 2023).

Experiments:
[1] = biological target: T1, B1 bradykinin receptor (Homo sapiens, UniProt P46663)
T1 sequence (P46663 whole entry): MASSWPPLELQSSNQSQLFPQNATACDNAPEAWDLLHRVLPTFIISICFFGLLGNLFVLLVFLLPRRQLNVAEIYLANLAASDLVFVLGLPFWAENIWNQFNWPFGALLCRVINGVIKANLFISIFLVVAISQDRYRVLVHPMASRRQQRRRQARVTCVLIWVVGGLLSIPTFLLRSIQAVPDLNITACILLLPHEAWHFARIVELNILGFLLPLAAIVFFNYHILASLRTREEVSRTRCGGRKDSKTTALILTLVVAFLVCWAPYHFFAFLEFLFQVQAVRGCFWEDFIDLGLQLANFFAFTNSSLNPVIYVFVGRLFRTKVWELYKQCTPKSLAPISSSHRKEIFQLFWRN

[2] = biological target: T2, Corticotropin-releasing factor receptor 1 (Homo sapiens, UniProt P34998)
T2 sequence (P34998 whole entry): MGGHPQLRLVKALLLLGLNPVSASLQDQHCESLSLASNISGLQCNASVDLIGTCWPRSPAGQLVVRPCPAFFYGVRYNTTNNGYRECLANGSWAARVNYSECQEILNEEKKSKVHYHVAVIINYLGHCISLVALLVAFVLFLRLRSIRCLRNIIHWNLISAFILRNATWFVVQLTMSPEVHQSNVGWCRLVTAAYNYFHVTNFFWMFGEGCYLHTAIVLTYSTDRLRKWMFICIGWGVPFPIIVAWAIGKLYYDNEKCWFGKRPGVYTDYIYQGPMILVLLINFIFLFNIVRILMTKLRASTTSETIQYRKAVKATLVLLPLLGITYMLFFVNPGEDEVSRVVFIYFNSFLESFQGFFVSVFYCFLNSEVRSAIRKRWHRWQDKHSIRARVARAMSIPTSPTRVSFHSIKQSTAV

[3] = biological target: T3, Endothelin receptor type B (Homo sapiens, UniProt P24530)
T3 sequence (P24530 whole entry): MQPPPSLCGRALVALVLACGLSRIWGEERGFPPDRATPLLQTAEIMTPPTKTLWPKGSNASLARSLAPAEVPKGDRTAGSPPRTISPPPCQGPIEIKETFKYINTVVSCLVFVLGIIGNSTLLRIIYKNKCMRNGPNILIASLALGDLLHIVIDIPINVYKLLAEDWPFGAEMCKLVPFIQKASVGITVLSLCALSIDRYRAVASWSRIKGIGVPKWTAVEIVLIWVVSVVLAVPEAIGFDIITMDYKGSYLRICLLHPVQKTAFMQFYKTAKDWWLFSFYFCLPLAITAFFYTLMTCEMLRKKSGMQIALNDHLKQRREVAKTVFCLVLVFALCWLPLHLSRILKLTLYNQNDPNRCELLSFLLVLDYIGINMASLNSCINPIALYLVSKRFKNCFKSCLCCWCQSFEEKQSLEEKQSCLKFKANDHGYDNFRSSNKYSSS

[4] = biological target: Voltage-dependent L-type calcium channel subunit alpha-1C (Homo sapiens, UniProt Q13936); type: functional, cell-based
[5] = biological target: T4, D(4) dopamine receptor (Homo sapiens, UniProt P21917)
T4 sequence (P21917 whole entry): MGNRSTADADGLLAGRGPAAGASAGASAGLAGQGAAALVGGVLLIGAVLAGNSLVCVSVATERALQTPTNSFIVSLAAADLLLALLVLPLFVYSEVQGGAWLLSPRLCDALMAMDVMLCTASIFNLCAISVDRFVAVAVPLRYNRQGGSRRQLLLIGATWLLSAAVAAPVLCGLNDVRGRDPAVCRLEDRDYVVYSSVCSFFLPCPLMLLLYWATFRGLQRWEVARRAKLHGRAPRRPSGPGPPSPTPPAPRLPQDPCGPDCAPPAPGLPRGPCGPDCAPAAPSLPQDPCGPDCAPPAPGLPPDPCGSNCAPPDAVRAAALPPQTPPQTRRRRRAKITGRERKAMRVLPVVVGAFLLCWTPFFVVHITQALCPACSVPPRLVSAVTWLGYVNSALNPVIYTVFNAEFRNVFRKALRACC

[6] = biological target: 5-hydroxytryptamine receptor 6 (Homo sapiens, UniProt P50406)
[7] = biological target: Histamine H2 receptor (Homo sapiens, UniProt P25021)
[8] = biological target: T5, Muscarinic acetylcholine receptor M2 (Homo sapiens, UniProt P08172)
T5 sequence (P08172 whole entry): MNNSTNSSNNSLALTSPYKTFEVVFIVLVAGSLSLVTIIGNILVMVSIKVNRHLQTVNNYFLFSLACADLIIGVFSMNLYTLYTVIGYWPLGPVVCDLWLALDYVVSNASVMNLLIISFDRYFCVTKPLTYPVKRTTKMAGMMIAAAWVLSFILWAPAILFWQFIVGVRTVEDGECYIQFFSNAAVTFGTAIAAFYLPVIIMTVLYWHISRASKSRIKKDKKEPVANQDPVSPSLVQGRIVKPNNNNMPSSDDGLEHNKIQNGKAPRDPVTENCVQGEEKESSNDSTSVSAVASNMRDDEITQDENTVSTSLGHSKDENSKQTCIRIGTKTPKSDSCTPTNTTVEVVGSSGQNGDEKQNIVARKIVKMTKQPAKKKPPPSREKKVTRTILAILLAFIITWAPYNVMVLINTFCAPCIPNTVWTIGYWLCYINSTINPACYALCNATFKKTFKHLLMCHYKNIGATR

[9] = biological target: T6, Substance-K receptor (Homo sapiens, UniProt P21452)
T6 sequence (P21452 whole entry): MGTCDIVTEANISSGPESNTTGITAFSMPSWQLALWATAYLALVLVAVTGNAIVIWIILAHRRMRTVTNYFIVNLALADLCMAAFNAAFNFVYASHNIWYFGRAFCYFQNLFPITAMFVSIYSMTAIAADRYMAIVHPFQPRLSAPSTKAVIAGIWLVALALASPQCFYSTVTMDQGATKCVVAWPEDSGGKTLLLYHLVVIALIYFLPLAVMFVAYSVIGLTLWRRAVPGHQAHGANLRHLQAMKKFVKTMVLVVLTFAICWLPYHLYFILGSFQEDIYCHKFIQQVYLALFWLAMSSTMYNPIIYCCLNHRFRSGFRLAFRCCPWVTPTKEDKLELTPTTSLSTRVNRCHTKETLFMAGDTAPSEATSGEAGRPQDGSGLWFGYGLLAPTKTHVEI

[10] = biological target: Hydroxycarboxylic acid receptor 2 (Homo sapiens, UniProt Q8TDS4)
Further: assay procedure not described here.

5-hydroxytryptamine receptor 6, sequence (P50406 whole entry): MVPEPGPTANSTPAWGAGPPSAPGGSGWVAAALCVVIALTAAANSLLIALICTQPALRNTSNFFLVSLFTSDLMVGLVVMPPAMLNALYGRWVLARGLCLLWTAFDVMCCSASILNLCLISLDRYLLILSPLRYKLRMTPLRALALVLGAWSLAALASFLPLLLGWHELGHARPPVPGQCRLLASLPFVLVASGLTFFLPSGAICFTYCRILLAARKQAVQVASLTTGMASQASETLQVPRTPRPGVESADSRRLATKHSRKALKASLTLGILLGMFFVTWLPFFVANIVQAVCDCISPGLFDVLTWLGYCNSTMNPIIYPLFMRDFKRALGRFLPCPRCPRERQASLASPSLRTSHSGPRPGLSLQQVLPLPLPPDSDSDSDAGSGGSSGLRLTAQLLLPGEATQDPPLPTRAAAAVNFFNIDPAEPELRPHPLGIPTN
Histamine H2 receptor, sequence (P25021 whole entry): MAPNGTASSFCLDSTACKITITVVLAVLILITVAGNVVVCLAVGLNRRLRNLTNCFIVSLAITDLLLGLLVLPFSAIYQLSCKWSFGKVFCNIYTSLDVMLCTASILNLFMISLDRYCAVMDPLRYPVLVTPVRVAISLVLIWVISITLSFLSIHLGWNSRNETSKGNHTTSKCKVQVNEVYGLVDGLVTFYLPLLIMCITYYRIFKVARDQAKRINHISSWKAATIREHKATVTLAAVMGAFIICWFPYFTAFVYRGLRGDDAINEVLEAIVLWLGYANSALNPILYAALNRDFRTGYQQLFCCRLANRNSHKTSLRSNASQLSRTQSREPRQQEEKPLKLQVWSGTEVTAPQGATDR
Voltage-dependent L-type calcium channel subunit alpha-1C, sequence (Q13936 whole entry): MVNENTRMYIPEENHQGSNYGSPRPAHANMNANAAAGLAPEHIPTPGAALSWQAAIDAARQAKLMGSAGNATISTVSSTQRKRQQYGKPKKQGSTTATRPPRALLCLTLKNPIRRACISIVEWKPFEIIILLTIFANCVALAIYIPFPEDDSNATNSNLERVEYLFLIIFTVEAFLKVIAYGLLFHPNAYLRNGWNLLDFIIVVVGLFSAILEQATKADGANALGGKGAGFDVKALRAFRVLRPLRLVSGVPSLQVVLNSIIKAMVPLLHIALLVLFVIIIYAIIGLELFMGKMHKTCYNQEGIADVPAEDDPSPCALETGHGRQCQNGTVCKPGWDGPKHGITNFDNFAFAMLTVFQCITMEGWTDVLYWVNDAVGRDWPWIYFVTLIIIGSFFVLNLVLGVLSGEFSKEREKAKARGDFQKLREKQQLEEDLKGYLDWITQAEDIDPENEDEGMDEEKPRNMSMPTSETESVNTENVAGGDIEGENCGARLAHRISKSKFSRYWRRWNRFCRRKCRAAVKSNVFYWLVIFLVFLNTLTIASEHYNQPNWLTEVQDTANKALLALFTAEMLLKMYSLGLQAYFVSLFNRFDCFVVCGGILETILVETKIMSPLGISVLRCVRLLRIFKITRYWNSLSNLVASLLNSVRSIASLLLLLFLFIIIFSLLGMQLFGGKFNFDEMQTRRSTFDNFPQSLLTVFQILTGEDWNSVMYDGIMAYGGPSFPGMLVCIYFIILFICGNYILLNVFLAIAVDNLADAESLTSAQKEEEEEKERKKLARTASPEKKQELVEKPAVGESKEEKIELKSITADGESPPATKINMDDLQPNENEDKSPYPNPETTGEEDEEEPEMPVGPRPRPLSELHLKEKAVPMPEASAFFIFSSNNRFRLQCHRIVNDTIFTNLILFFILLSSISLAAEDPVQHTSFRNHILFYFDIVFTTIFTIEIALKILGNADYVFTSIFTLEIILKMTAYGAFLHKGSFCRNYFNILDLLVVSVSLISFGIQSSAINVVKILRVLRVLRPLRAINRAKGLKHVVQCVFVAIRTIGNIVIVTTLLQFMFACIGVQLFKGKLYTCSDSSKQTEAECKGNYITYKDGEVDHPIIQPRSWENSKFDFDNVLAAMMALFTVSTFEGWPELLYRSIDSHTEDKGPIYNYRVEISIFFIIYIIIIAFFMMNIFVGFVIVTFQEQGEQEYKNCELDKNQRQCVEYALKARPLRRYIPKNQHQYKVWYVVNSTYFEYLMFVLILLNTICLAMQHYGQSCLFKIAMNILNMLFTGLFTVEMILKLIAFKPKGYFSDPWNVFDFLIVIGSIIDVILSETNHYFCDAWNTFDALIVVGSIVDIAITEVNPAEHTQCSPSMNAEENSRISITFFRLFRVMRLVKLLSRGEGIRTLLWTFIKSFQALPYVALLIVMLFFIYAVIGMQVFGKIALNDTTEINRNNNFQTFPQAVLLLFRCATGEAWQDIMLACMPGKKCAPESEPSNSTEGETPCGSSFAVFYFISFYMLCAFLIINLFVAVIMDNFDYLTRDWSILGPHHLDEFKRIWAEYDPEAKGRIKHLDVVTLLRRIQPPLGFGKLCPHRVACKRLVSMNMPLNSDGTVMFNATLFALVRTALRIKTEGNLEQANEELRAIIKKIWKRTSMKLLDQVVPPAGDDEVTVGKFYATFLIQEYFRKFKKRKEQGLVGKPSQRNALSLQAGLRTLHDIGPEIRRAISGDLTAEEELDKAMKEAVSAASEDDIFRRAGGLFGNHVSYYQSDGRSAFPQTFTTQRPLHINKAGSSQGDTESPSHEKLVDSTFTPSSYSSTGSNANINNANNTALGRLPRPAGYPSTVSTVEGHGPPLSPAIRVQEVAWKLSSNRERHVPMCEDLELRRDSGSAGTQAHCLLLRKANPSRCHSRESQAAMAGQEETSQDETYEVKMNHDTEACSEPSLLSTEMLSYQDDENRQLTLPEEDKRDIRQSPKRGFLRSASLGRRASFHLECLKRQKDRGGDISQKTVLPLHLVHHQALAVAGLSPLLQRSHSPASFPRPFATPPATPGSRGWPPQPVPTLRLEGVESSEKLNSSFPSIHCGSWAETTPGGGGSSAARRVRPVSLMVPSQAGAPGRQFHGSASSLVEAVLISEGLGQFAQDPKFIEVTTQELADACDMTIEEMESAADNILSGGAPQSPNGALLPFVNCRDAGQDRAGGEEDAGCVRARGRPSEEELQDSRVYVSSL
Hydroxycarboxylic acid receptor 2, sequence (Q8TDS4 whole entry): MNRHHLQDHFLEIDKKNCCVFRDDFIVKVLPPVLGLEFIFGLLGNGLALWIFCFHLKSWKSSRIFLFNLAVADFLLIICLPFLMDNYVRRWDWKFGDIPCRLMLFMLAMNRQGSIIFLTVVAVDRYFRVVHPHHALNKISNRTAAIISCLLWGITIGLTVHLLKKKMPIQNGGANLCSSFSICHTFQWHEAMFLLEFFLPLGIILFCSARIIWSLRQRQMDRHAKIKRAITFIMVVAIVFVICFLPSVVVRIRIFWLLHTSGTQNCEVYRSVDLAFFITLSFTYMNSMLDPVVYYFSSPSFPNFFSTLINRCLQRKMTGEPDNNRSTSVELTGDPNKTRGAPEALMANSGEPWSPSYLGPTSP

For C[C@]12C=CC(=O)C=C1CC[C@@H]1[C@@H]2[C@@H](O)C[C@@]2(C)[C@H]1CC[C@]2(O)C(=O)CO [PREDNISOLONE], the AC50 [1] was > 30 µM, the AC50 [2] was > 30 µM and the AC50 [3] was > 30 µM.

For COc1cccc2c1C(=O)c1c(O)c3c(c(O)c1C2=O)C[C@@](O)(C(=O)CO)C[C@@H]3O[C@H]1C[C@H](N)[C@H](O)[C@H](C)O1 [DOXORUBICIN], the AC50 [4] was > 50 µM.

In the case of C[C@@H]1CN(c2c(F)c(N)c3c(=O)c(C(=O)O)cn(C4CC4)c3c2F)C[C@H](C)N1 [SPARFLOXACIN], the AC50 [4] is reported as > 50 µM.

Cc1ccc(O)c([C@H](CCN(C(C)C)C(C)C)c2ccccc2)c1 [TOLTERODINE] was tested, and the AC50 [5] was > 10 µM, the AC50 [6] was > 10 µM and the AC50 [7] was 3.2 µM.

Work on CN1CCCC(CC2c3ccccc3Sc3ccccc32)C1 (configuration not stated) [METHIXENE] yielded an AC50 [8] of 0.0053 µM.

For N=C(N)NC(=O)c1nc(Cl)c(N)nc1N [AMILORIDE], the AC50 [5] was > 10 µM, the AC50 [1] was > 10 µM and the AC50 [2] was > 30 µM. For the same compound, the AC50 [3] was > 30 µM, the AC50 [6] was > 10 µM and the AC50 [9] was > 10 µM. For the same compound, the AC50 [7] was > 10 µM.

In the case of Cc1cnc(C(=O)O)c[n+]1[O-] [ACIPIMOX], the AC50 [10] is reported as 3.9 µM.
